Laboratory results: ChEMBL document CHEMBL1152021, “(E) and (Z)-3-Styrylpiperidines as sigma ligands” (Bioorg Med Chem Lett, 1997)
pIC50: −log10 of the molar value.

Experiments:
[1] = biological target: Sigma non-opioid intracellular receptor 1 (Rattus norvegicus, UniProt Q9R0C9); experiment: Binding affinity at sigma receptor by [3H](+)-SKF-10047 displacement.
D(2) dopamine receptor = D(2) dopamine receptor (Rattus norvegicus, UniProt P61169); experiment: Binding affinity at dopamine D2 receptor in rat striatum by [3H]spiperone displacement.; type: tissue-based
D(1A) dopamine receptor = D(1A) dopamine receptor (Rattus norvegicus, UniProt P18901); experiment: Binding affinity at dopamine D1 receptor in rat striatum by [3H][…] displacement.; type: tissue-based
Chain of D(1A) dopamine receptor (P18901 whole entry): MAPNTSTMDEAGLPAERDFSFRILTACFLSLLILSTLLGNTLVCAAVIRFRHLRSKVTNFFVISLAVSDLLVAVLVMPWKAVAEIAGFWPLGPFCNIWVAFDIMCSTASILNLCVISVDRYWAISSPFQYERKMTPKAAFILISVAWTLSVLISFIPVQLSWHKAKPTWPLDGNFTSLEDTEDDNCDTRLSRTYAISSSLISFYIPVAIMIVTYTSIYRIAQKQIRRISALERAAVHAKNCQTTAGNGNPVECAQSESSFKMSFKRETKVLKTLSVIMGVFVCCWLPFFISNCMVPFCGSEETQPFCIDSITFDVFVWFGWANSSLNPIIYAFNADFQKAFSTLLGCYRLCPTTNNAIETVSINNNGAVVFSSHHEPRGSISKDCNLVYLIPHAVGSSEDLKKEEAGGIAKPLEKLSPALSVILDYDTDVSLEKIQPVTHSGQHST

Chain of Sigma non-opioid intracellular receptor 1 (Q9R0C9 whole entry): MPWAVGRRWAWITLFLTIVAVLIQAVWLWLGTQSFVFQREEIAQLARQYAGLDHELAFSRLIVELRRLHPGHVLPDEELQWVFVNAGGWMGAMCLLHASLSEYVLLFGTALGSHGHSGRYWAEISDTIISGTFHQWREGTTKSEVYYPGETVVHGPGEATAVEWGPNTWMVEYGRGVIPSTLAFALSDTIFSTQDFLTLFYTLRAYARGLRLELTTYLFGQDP
Chain of D(2) dopamine receptor (P61169 whole entry): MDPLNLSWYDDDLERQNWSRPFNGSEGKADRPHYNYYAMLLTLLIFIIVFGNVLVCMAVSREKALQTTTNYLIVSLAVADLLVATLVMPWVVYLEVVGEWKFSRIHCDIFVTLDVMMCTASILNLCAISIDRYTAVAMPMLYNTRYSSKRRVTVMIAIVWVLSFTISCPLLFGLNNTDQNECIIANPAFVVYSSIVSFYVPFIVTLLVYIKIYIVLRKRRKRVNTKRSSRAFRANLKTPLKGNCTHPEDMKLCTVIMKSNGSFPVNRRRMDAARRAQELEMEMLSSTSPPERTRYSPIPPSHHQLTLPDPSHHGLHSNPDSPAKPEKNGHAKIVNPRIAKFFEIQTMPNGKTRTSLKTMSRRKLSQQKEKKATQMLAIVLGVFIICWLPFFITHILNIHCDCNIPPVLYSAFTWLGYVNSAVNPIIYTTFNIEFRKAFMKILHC

Row | Compound | pIC50 [1] | pIC50 (D(2) dopamine receptor) | pIC50 (D(1A) dopamine receptor)
1 | O=C(NCCCCN1CCCC(/C=C\c2ccccc2)C1)C12C[C@H]3C[C@@H](C1)C[C@@H](C2)C3 (stereo partly drawn) | 7.64 | – | –
2 | C(=C\C1CCCN(CCCOc2ccccc2)C1)/c1ccccc1 (stereo not drawn) | 7.48 | – | –
3 | C(=C\C1CCCNC1)/c1ccccc1 (stereo not drawn) | 6.37 | < 5.00 | < 5.00
4 | C(=C/C1CCCNC1)/c1ccccc1 (stereo not drawn) | 7.19 | 6.06 | < 5.00
5 | O=C1c2ccccc2S(=O)(=O)N1CCCCN1CCCC(/C=C/c2ccccc2)C1 (stereo not drawn) | 7.64 | – | –
6 | C(=C/C1CCCN(CCCOc2ccccc2)C1)/c1ccccc1 (stereo not drawn) | 7.82 | – | –
7 | C(=C/C1CCCN(CCCSc2nc3ccccc3s2)C1)/c1ccccc1 (stereo not drawn) | 7.57 | – | –
8 | O=C(CCCN1CCCC(/C=C\c2ccccc2)C1)c1ccccc1 (stereo not drawn) | 7.82 | – | –
9 | C=CCCCN1CCCC(/C=C/c2ccccc2)C1 (stereo not drawn) | 7.92 | – | –
10 | CC(C)=CCN1CCCC(/C=C/c2ccccc2)C1 (stereo not drawn) | 7.42 | 6.74 | 5.88
11 | C(=C/C1CCCN(CCC2CCCCC2)C1)/c1ccccc1 (stereo not drawn) | 8.15 | 5.26 | < 5.00
12 | O=C(CN1CCCC(/C=C\c2ccccc2)C1)Nc1ccccc1 (stereo not drawn) | 6.19 | – | –
13 | C(=C/C1CCCN(CCCCc2ccccc2)C1)/c1ccccc1 (stereo not drawn) | 8.15 | 5.84 | 5.23
14 | C(=C\C1CCCN(C2CCCCC2)C1)/c1ccccc1 (stereo not drawn) | 8.22 | 5.29 | < 5.00
15 | C(=C\C1CCCN(Cc2ccccc2)C1)/c1ccccc1 (stereo not drawn) | 8.00 | – | –

More lines, now with the values ahead:

Row | pIC50 [1] | pIC50 (D(2) dopamine receptor) | pIC50 (D(1A) dopamine receptor) | Compound
16 | 8.70 | 5.95 | < 5.00 | C(=C/C1CCCN(C2CCCCC2)C1)/c1ccccc1 (stereo not drawn)
17 | 8.40 | 5.91 | 5.81 | C(=C\C1CCCN(CCCc2ccccc2)C1)/c1ccccc1 (stereo not drawn)
18 | 9.10 | 6.92 | 6.20 | C(=C/C1CCCN(CCc2ccccc2)C1)/c1ccccc1 (stereo not drawn)
19 | 9.00 | 6.80 | 6.49 | CC(C)=CCN1CCCC(/C=C\c2ccccc2)C1 (stereo not drawn)
20 | 9.22 | 6.82 | 5.66 | C(=C/C1CCCN(CCCc2ccccc2)C1)/c1ccccc1 (stereo not drawn)
21 | 8.40 | < 5.00 | < 5.00 | C=CCN1CCCC(/C=C/c2ccccc2)C1 (stereo not drawn)
22 | 8.22 | 5.62 | < 5.00 | C(=C\C1CCCN(CCc2ccccc2)C1)/c1ccccc1 (stereo not drawn)
